Results as given in patent US9181241B2, “Antagonists of chemokine receptors” (ChemoCentryx, Inc., priority 2012, dated 2015).
pIC50: −log10 of the molar value.

How the values were obtained:
[1] = system: inflammatory cells recruited to the inflamed synovial fluid of the knee joints; experiment: Rabbit model of destructive joint inflammation (rabbit LPS study); format: in vivo, New Zealand rabbits; details: intra-articular LPS 10 ng, dosed orally 2 hours before and 4 hours after LPS, lavage at sixteen hours
Procedure: A rabbit LPS study was conducted essentially as described in Podolin, et al. J. Immunol. 169(11):6435-6444 (2002). Female New Zealand rabbits (approximately 2 kilograms) were treated intra-articularly in both knees with LPS (10 ng). The compound of interest, for example 1.016, (formulated in 1% methocel) or vehicle (1% methocel) was dosed orally at a 5 ml/kg dose volume at two times (2 hours before the intra-articular LPS injection and 4 hours after the intra-articular LPS injection). Sixteen hours after the LPS injection, knees were lavaged and cells counts were performed. Beneficial effects of treatment were determined by reduction in the number of inflammatory cells recruited to the inflamed synovial fluid of the knee joints.

CCR1 = target: T1, CCR1 (Homo sapiens, UniProt P32246); experiment: Chemotaxis assay (CTX): inhibition of CCR1 mediated migration of THP-1 or monocyte cells; format: cell-based; details: class symbols; activity for either the chemotaxis assay or binding assay
T1 construct: host or cells: THP-1 cells or isolated human CD14+ monocytes
T1 sequence (P32246 1-355): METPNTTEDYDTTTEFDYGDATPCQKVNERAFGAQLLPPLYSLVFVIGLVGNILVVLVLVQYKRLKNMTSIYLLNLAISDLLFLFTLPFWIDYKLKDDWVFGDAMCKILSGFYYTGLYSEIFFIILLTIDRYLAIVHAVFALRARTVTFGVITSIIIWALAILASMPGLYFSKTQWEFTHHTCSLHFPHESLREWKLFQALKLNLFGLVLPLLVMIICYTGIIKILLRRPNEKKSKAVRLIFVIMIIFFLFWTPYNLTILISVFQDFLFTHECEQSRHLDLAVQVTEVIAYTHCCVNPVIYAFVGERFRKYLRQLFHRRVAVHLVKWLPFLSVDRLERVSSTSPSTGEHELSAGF
Procedure: THP-1 cells were obtained from ATCC (TIB-202) and cultured as a suspension in RPMI-1640 medium supplemented with 2 mM L-glutamine, 1.5 g/L sodium bicarbonate, 4.5 g/L glucose, 10 mM HEPES, 1 mM sodium pyruvate, 0.05% 2-mercaptoethanol and 10% FBS. Cells were grown under 5% CO2/95% air, 100% humidity at 37° C. and subcultured twice weekly at 1:5 (cells were cultured at a density range of 2×10^5 to 2×10^6 cells/mL) and harvested at 1×10^6 cells/mL. THP-1 cells express CCR1 and can be used in CCR1 binding and functional assays.
Monocytes were isolated from human buffy coats using the Miltenyi bead isolation system (Miltenyi, Auburn, Calif.). Briefly, following a Ficoll gradient separation to isolate peripheral blood mononuclear cells, cells were washed with PBS and the red blood cells lysed using standard procedures. Remaining cells were labeled with anti-CD14 antibodies coupled to magnetic beads (Miltenyi Biotech, Auburn, Calif.). Labeled cells were passed through AutoMACS (Miltenyi, Auburn, Calif.) and positive fraction collected. Monocytes express CCR1 and can be used in CCR1 binding and functional assays.
Chemotaxis assays were performed using 5 μm pore polycarbonate, polyvinylpyrrolidone-coated filters in 96-well chemotaxis chambers (Neuroprobe; Gaithersburg, Md.) using chemotaxis buffer (Hank's balanced salt solution (HBSS) and 1% FBS). CCR1 chemokine ligands (i.e., MIP-1α, CCL15/Leukotactin; R&D Systems; Minneapolis, Minn.) are use to evaluate compound mediated inhibition of CCR1 mediated migration. Other chemokines (i.e., SDF-1α; R&D Systems; Minneapolis, Minn.) are used as specificity controls. The lower chamber was loaded with 29 μl of chemokine (i.e., 0.1 nM CCL15/Leukotactin) and varying amounts of compound; the top chamber contained 100,000 THP-1 or monocyte cells in 20 μl. The chambers were incubated 1-2 hours at 37° C., and the number of cells in the lower chamber quantified either by direct cell counts in five high powered fields per well or by the CyQuant assay (Molecular Probes), a fluorescent dye method that measures nucleic acid content, and by measuring with a Spectrafluor Plus (Tecan). The computer program Prism from GraphPad, Inc. (San Diego, Calif.) was used to calculate IC50 values. IC50 values are those compound concentrations required to inhibit the number of cells responding to a CCR1 agonist by 50%.

Compound | reduction in the number of inflammatory cells recruited to the inflamed synovial fluid of the knee joints [1] | pIC50 (CCR1)
Cc1c(Cl)c(C(F)(F)F)nn1C(CO)C(=O)N1CCCc2c1cnn2-c1ccc(F)cc1 (stereo not drawn) [Example 1.016] | significant reduction in recruited inflammatory cells | –
COc1cc(-n2ncc3c2CCCN3C(=O)Cn2nc(C(F)(F)F)c(Cl)c2C)ccc1Cl | – | > 6.00
Cc1c(Cl)c(C(C)(C)O)nn1CC(=O)N1CCCc2c1cnn2-c1ccc(F)cc1 | – | > 6.00
